Assay results taken from publication PMC10165928 (Journal of Enzyme Inhibition and Medicinal Chemistry, 2023).
Entries after “also recorded” stand apart in the source; their conditions may differ. Each block holds one compound with its values, some of them ahead of it.

Key:
HDAC10 = target: T1, HDAC10 (Homo sapiens, UniProt Q969S8); test: In vitro HDAC10 inhibition assay; assay type: biochemical
T1 sequence (Q969S8 1-669): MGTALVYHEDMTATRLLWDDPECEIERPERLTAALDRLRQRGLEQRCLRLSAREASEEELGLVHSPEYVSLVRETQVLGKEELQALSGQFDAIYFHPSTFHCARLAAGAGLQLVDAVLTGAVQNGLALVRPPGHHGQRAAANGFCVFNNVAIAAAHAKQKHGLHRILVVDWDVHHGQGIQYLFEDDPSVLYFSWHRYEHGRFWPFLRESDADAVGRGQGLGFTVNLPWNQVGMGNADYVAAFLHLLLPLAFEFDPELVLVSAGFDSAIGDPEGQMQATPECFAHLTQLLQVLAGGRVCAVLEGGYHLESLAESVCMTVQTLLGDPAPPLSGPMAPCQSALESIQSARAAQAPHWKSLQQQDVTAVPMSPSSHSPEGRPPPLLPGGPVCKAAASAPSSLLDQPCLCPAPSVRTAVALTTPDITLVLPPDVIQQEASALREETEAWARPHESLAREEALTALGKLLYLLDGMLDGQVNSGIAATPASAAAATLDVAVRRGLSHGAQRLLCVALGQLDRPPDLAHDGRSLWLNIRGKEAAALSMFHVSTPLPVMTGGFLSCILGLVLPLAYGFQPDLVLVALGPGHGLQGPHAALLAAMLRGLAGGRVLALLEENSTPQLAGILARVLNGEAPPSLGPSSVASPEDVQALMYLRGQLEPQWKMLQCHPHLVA

[1] = system: colon cancer HCT-116 cells; test: MTT cell growth inhibition assay, HCT-116; assay type: cell-based, human; conditions: for IC50: Homo sapiens, HCT-116, 72 h, read-out: IC50 HCT-116 cells
[2] = system: promyelocytic leukaemia HL-60 cells; test: MTT cell growth inhibition assay, HL-60; assay type: cell-based; conditions: Homo sapiens, HL-60, 72 h, read-out: IC50 HL-60 cells
[3] = system: normal human liver L-O2 cells; test: In vitro toxicity test; assay type: cell-based; conditions: for IC50: Homo sapiens, L02, 72 h, read-out: IC50 L-O2 cells; for SI (selectivity index): ratio of IC50 of L-O2 cells divided by that of HL-60 cells
HDAC1 = HDAC1 (Homo sapiens, UniProt Q13547); test: In vitro HDAC1 inhibition assay; assay type: biochemical; conditions: for IC50 HDAC1: mean ± SEM of three independent assays, NA: IC50 not apparent even with the compound tested >10 μM; for SI (selectivity index): ratio of IC50 of HDAC6 divided by that of HDAC1
HDAC6 = target: T2, HDAC6 (Homo sapiens, UniProt Q9UBN7); test: In vitro HDAC6 inhibition assay; assay type: biochemical; conditions: mean ± SEM of three independent assays; NA: IC50 not apparent even with the compound tested >10 μM
T2 sequence (Q9UBN7 1-1215): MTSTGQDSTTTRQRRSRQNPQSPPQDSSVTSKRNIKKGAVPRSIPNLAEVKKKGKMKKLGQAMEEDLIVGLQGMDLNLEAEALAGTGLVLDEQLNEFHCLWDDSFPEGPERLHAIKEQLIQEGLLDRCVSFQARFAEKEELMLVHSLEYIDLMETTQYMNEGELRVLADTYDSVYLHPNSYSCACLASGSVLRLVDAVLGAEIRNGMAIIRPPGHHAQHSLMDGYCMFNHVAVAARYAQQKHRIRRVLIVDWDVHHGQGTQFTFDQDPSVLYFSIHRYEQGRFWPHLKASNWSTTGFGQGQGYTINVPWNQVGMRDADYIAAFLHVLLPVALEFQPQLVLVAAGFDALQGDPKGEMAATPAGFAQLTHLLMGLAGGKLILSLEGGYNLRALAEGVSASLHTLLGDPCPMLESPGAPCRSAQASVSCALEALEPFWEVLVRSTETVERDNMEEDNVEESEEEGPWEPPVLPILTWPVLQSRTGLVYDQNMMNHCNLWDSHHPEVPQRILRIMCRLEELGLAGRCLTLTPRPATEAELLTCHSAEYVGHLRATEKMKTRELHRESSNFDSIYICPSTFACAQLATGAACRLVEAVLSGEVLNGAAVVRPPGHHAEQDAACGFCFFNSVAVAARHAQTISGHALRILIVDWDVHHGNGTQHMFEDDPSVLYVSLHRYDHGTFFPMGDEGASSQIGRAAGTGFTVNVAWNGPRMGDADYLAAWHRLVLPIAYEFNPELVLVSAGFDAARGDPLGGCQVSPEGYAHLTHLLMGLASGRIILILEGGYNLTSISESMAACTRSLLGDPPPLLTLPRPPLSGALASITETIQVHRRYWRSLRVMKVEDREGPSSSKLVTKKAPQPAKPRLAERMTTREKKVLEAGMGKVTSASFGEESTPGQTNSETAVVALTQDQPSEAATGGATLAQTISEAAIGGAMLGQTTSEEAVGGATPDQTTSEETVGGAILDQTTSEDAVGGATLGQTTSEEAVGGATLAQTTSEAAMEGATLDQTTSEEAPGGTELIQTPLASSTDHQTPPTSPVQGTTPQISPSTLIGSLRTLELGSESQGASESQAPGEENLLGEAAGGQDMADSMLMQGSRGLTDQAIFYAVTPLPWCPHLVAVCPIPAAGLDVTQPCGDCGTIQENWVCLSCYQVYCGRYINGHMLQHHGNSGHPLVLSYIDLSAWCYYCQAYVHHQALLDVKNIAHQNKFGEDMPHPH

HDAC3 = HDAC3 (Homo sapiens, UniProt O15379); test: In vitro HDAC3 inhibition assay; assay type: biochemical
HDAC8 = target: T3, HDAC8 (Homo sapiens, UniProt Q9BY41); test: In vitro HDAC8 inhibition assay; assay type: biochemical; conditions: for IC50 HDAC8: mean ± SEM of three independent assays
T3 sequence (Q9BY41 1-377): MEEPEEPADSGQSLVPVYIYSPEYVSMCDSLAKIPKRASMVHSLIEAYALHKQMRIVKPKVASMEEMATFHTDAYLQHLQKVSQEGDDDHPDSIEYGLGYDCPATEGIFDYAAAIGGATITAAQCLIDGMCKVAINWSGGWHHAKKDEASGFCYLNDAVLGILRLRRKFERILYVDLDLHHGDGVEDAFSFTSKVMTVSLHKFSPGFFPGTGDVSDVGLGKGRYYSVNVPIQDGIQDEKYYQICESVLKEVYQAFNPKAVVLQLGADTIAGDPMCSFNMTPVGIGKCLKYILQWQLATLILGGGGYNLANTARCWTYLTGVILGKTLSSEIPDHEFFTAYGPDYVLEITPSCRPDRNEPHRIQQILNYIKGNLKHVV

HL-60 cells [4] = test: Western blot analysis in HL-60 cells; assay type: cell-based, human; conditions: 48 h; for histone H3 acetylation (Ac-H3) level: different concentrations; for expression of Rb / expression of p-Rb / expression of γ-H2AX: increasing concentration
HL-60 cells [5] = test: Cell cycle analysis by flow cytometry; assay type: cell-based, human; conditions: HL-60, 48 h
HL-60 cells [6] = test: Cell apoptosis detection; assay type: cell-based, human; conditions: HL-60, 48 h

Sequence of HDAC1 (Q13547 whole entry): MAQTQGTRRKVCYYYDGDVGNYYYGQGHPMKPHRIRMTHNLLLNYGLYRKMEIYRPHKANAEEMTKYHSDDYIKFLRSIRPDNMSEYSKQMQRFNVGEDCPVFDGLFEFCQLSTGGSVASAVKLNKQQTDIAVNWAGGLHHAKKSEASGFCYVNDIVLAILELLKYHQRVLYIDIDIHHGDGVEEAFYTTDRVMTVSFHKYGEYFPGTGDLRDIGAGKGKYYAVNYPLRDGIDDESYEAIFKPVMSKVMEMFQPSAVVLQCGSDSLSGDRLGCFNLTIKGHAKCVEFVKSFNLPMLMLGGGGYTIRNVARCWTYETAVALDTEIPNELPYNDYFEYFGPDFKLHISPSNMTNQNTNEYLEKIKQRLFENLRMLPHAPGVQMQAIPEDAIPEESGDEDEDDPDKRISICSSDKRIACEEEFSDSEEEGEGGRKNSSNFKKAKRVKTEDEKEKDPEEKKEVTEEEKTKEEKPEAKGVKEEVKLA
Sequence of HDAC3 (O15379 whole entry): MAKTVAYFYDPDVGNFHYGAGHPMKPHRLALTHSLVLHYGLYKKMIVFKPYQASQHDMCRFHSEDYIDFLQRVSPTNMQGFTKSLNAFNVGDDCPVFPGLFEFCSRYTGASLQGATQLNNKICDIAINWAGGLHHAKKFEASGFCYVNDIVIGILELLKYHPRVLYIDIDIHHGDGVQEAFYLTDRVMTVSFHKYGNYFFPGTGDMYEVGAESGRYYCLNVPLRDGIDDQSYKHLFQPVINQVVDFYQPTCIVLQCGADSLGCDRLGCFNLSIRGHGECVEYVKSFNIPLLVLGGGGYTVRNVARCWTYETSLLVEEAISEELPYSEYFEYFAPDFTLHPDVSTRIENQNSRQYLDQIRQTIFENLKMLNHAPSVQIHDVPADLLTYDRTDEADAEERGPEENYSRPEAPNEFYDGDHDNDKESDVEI
Sequence of HDAC3 (Q9Y618 395-489 partner limits assumed): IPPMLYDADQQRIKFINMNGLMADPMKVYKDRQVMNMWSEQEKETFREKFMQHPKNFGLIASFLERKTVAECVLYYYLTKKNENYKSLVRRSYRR

IC50 (HDAC10): 259 ± 23 nM | IC50 [1]: 3.86 ± 1.08 µM | IC50 [2]: 860 ± 70 nM
SMILES: Nc1cc(F)ccc1NC(=O)c1ccc(CNC(=O)/C=C/c2cccnc2)cc1 [Chidamide, chidamide, reference compound]
IC50 [3]: 8.87 ± 0.93 µM

IC50 HDAC1 (HDAC1): completely lost
SMILES: Nc1cc(F)ccc1NC(=O)c1ccc(Cl)c2c(=O)c3cccc([N+](=O)[O-])c3[nH]c12 [Compound 8a, N-(2-amino-4-fluorophenyl)-1-chloro-5-nitro-9-oxo-9,10-dihydroacridine-4-carboxamide]

IC50 (HDAC1): 4090 ± 273 nM | SI (selectivity index) (HDAC1): >2.4 | IC50 HCT-116 cells ([1]; MTT, 72 h, mean ± SEM of three assays, NA: IC50 not apparent even with the compound tested >50 μM): no anti-proliferation activity | IC50 [2]: 13200 ± 2430 nM
SMILES: COc1cccc2c(=O)c3c(Cl)ccc(C(=O)NCCCC(=O)Nc4ccccc4N)c3[nH]c12 [Compound 11a, N-(4-((2-aminophenyl)amino)-4-oxobutyl)-1-chloro-5-methoxy-9-oxo-9,10-dihydroacridine-4-carboxamide]

IC50 (HDAC1): 227 ± 9 nM | SI (selectivity index) (HDAC1): >44.1 | IC50 (HDAC3): 418 ± 40 nM | IC50 (HDAC8): > 5 µM | IC50 (HDAC10): 387 ± 64 nM | IC50 [1]: 3.17 ± 0.26 µM | IC50 [2]: 560 ± 30 nM
SMILES: COc1cccc2c(=O)c3c(Cl)ccc(C(=O)NCCCCCC(=O)Nc4ccccc4N)c3[nH]c12 [Compound 11b, N-(6-((2-aminophenyl)amino)-6-oxohexyl)-1-chloro-5-methoxy-9-oxo-9,10-dihydroacridine-4-carboxamide]
IC50 HDAC6 (HDAC6): no inhibitory effect; also recorded: no inhibitory activity | IC50 HDAC8 (HDAC8): no inhibitory effect; also recorded: no inhibitory activity | IC50 [3]: 5 ± 0.33 µM | SI (selectivity index) [3]: 8.9 | histone H3 acetylation (Ac-H3) level (HL-60 cells [4]): significantly induced histone H3 acetylation | expression of Rb (HL-60 cells [4]): significantly down-regulated | expression of p-Rb (HL-60 cells [4]): significantly down-regulated | expression of γ-H2AX (HL-60 cells [4]): up-regulated | proportion of cells in S phase (HL-60 cells [5]; 0.1 μM): 49.1% | proportion of cells in S phase (HL-60 cells [5]; 0.5 μM): 50.4% | proportion of cells in S phase (HL-60 cells [5]; 2.5 μM): 59.2% | proportion of apoptotic cells (HL-60 cells [6]; 2.5 μM): 85.8%

IC50 (HDAC1): 87 ± 3 nM | SI (selectivity index) (HDAC1): >114.9 | IC50 (HDAC3): 225 ± 9 nM | IC50 (HDAC8): > 5 µM | IC50 (HDAC10): 177 ± 8 nM | IC50 [1]: 4.21 ± 0.57 µM | IC50 [2]: 1240 ± 80 nM
SMILES: COc1cccc2c(=O)c3c(Cl)ccc(C(=O)NCCCCCCC(=O)Nc4ccccc4N)c3[nH]c12 [Compound 11c, N-(7-((2-aminophenyl)amino)-7-oxoheptyl)-1-chloro-5-methoxy-9-oxo-9,10-dihydroacridine-4-carboxamide]
IC50 HDAC6 (HDAC6): no inhibitory effect; also recorded: no inhibitory activity | IC50 HDAC8 (HDAC8): no inhibitory effect; also recorded: no inhibitory activity | IC50 [3]: 7.19 ± 1.52 µM | SI (selectivity index) [3]: 5.8 | histone H3 acetylation (Ac-H3) level (HL-60 cells [4]): significantly induced histone H3 acetylation | expression of Rb (HL-60 cells [4]): significantly down-regulated | expression of p-Rb (HL-60 cells [4]): significantly down-regulated | expression of γ-H2AX (HL-60 cells [4]): up-regulated | proportion of cells in S phase (HL-60 cells [5]; 0.2 μM): 48.4% | proportion of cells in S phase (HL-60 cells [5]; 1 μM): 52.7% | proportion of cells in S phase (HL-60 cells [5]; 5 μM): 58.4% | proportion of apoptotic cells (HL-60 cells [6]; 5 μM): 70.3%

IC50 (HDAC1): 247 ± 38 nM | SI (selectivity index) (HDAC1): >40.5 | IC50 [1]: 7.51 ± 0.74 µM | IC50 [2]: 10200 ± 3200 nM
SMILES: COc1cccc2c(=O)c3c(Cl)ccc(C(=O)NCCCCCCC(=O)Nc4ccc(F)cc4N)c3[nH]c12 [Compound 11d, N-(7-((2-amino-4-fluorophenyl)amino)-7-oxoheptyl)-1-chloro-5-methoxy-9-oxo-9,10-dihydroacridine-4-carboxamide]

IC50 HDAC1 (HDAC1): completely lost
SMILES: Cc1c(C(=O)Nc2ccccc2N)cc(Br)c2c(=O)c3ccccc3[nH]c12 [Compound 16a, N-(2-aminophenyl)-1-bromo-4-methyl-9-oxo-9,10-dihydroacridine-3-carboxamide]

IC50 HDAC1 (HDAC1): completely lost
SMILES: Cc1c(C(=O)Nc2ccc(Br)cc2N)cc(Br)c2c(=O)c3ccccc3[nH]c12 [Compound 16b, N-(2-amino-4-bromophenyl)-1-bromo-4-methyl-9-oxo-9,10-dihydroacridine-3-carboxamide]
